Measurements published in publication PMC9653339, “Revisiting the anticancer properties of phosphane(9-ribosylpurine-6-thiolato)gold(I) complexes and their 9H-purine precursors” (Journal of Biological Inorganic Chemistry, 2022).
Several values for one entry are separate records, joined by “and”; a condition that tells them apart may be missing. Equal values may be shown once. Read-outs that look alike come from different tables or passages of the source.

How the values were obtained:
[1] = system: EA.hy926 endothelial hybrid cells; experiment: MTT cell viability assay, EA.hy926; assay type: cell-based, human
Protocol: (§1) All complexes stable in solution were investigated for their anti-proliferative effect on nine human cancer cell lines, using the MTT-based cell viability assay. Cells were seeded in 96-well microtiter plates (Sarstedt) with a cell density of 0.05 × 10^6 cells per ml and 100 µL per well and incubated for 24 h. A dilution series of test compounds was added to the wells, ranging in twelve steps from 100 µM to 5 nM. As a control, equal amounts of DMSO were added. Treated cells were further incubated for 72 h. Then, 12.5 µL per well of MTT solution (0.05% in phosphate-buffered saline (PBS)) was added, followed by another 2 h of incubation. The plates were centrifuged, the medium was discarded and 25 µL per well of SDS solution in DMSO (10% SDS, 0.6% AcOH in DMSO) was added to dissolve the formazan. The plates were incubated for a further hour. Absorbances at 570 nm and 630 nm were measured using a plate reader (Tecan). Background absorbance (630 nm) was subtracted from the formazan signal (570 nm). The resulting absorbance was directly proportional to the amount of viable cells. The control was normalized to 100% viable cells and viability of cells treated with test compounds was calculated accordingly. IC50 values were calculated based on a sigmoidal fit model using GraphPad Prism. Means and SD were calculated from at least four independent experiments.

[2] = system: HCT-116^wt colon carcinoma cells; experiment: MTT cell viability assay, HCT-116wt; assay type: cell-based, human; conditions: 72 h
Protocol: as §1, with “Cells” for “All complexes stable in solution were investigated for their anti-proliferative effect on nine human cancer cell lines, using the MTT-based cell viability assay. Cells”

[3] = system: HCT-116^p53−/− (p53 knockout mutant) colon carcinoma cells; experiment: MTT cell viability assay, HCT-116 p53-/-; assay type: cell-based, human; conditions: 72 h
Protocol: as §1, with “Cells” for “All complexes stable in solution were investigated for their anti-proliferative effect on nine human cancer cell lines, using the MTT-based cell viability assay. Cells”

[4] = system: HT-29 colon carcinoma cells; experiment: MTT cell viability assay, HT-29; assay type: cell-based, human
Protocol: as §1

[5] = system: mdr KB-V1^Vbl cervix carcinoma cells; experiment: MTT cell viability assay, KB-V1 (with and without verapamil); assay type: cell-based, human; conditions: 72 h, without verapamil
Protocol: as §1

[6] = system: MCF-7 mamma carcinoma cells; experiment: MTT cell viability assay, MCF-7; assay type: cell-based, human
Protocol: as §1

[7] = system: U-87 glioblastoma cells; experiment: MTT cell viability assay, U-87; assay type: cell-based, human; conditions: 72 h
Protocol: as §1

[8] = system: 518A2 melanoma cells; experiment: MTT cell viability assay, 518A2; assay type: cell-based, human
Protocol: as §1

[9] = system: human adult dermal fibroblasts HDFa; experiment: MTT cell viability assay, HDFa; assay type: cell-based; conditions: 72 h, non-malignant fibroblasts
Protocol: as §1

[10] = system: caspase 3/7 in 518A2 melanoma cells; experiment: Caspase 3/7 activation; assay type: cell-based, human; conditions: 518A2 cells, 10 µM, 6 h
Protocol: The assay was conducted, following manufacturer’s instructions using the Cell Meter Caspase 3/7 activity apoptosis assay kit (AAT Bioquest). Briefly, 518A2 melanoma cells were seeded in 96-well flat black microtiter plates with a density of 0.22 × 10^6 cells per mL and 90 µL per well. After 24 h of incubation, 10 µL per well of tenfold diluted test compounds was added, and the cells were incubated for a further 6 h. Subsequently, 100 µL per well of Caspase 3/7 substrate working solution was added and incubated for 1 h in the dark at room temperature. The fluorescence was measured using a micro-plate reader (Tecan) at ex/em = 490/525 nm.

[11] = system: 518A2 melanoma cells; experiment: Lactate dehydrogenase (LDH) cytotoxicity assay; assay type: cell-based, human; conditions: 518A2 cells, 10 µM, 24 h
Protocol: 518A2 melanoma cells were seeded in 96-well flat bottom microtiter plates (Sarstedt) with 100 µL per well and a cell density of 0.05 × 10^6 cells per mL. Wells containing medium alone were additionally set for background measurement. Cells were allowed to grow overnight followed by substance treatment with 11.1 µL of tenfold concentrated test compound dilutions and further incubated for 24 h. As a positive control, 10 µL per well of lysis solution (9% Triton-X 100 in Millipore H2O) was added and incubated for 45 min to maintain maximum LDH release, the same amount was added to maximum release background correction wells containing only medium. After centrifugation (4 °C, 150×g, 5 min), 50 µL of the supernatant of each well was transferred on a fresh microtiter plate followed by addition of 50 µL LDH assay buffer (223 mg of 2-p-iodophenyl-3-p-nitrophenyl-5-phenyltetrazolium chloride, 57 mg of N-methyl-phenazonium methyl sulfate, 575 mg of […], 3.2 g of lactic acid in 480 ml 200 mM Tris–Cl, pH 8.0) per well. The plate was incubated in the dark for 10–30 min at room temperature. Then 50 µL stop solution (1 M acetic acid) was added per well and the absorbance was measured at 490 nm. The mean value of background wells with medium alone was subtracted from the negative control and test wells. Additionally, the mean value of volume correction wells was subtracted from maximum LDH release wells. The percentage of LDH release was calculated, with the maximum LDH release set as 100% and the negative control as 0% release. Means and SD were calculated from at least three independent experiments.

[12] = system: EA.hy926 cells; experiment: Tube formation assay; assay type: cell-based, human; conditions: 5 µM (CA-4 0.01 µM)
Protocol: EA.hy926 cells were cultured overnight in endothelial medium (37 °C, 95% humidity, 5% CO2) instead of DMEM. In addition, Matrigel was thawed on ice in the refrigerator. Pipette tips and 96-well plates were stored at − 20 °C overnight. The next day, 30 µL of Matrigel was added to each well bubble-free and the well plate was incubated for approximately 45 min (37 °C, 95% humidity, 5% CO2). Subsequently, 100 µL of cell suspension was added to each well at a concentration of 0.4–0.5 × 10^6 cells/mL onto the Matrigel-treated wells and the substances were added in tenfold pre-dilution. This was followed by incubation for approximately 6 h, until tubes formed in the negative control with DMSO. At this point, documentation under the microscope took place.

[13] = Homo sapiens, Colon carcinoma cell

In the case of `Sc1ncnc2nc[nH]c12` [6-MP, 6-Mercaptopurine, reference compound], the IC50 ([1]; Homo sapiens, EA.hy 926, 72 h) is reported as 920 ± 40 nM, the IC50 [2, 13] is reported as 5300 ± 280 nM and the IC50 [3, 13] is reported as 580 ± 50 nM. The IC50 ([4]; Homo sapiens, HT-29, 72 h) was 1400 ± 60 nM, the IC50 ([5]; Homo sapiens, KB-V1/Vbl) was 1600 ± 100 nM and the IC50 ([6]; Homo sapiens, MCF7, 72 h) was 3700 ± 260 nM. It also gave an IC50 ([7]; Homo sapiens) of 1400 ± 130 nM, an IC50 ([8]; Homo sapiens, 518A2, 72 h) of 11000 ± 1100 nM and an IC50 ([9]; Homo sapiens, HDFa) greater than 50000 nM. For the same compound, the “Caspase 3/7 activity” value [10] was “increased caspase activity levels” and the “LDH release (necrosis)” value [11] was “no enzyme could be detected”.

`Nc1nc2nc[nH]c2c(=S)[nH]1` [6-TG, 6-thioguanine, reference compound] was tested, and the IC50 ([1]; Homo sapiens, EA.hy 926, 72 h) was 250 ± 20 nM, the IC50 ([4]; Homo sapiens, HT-29, 72 h) was 1200 ± 80 nM and the IC50 ([5]; Homo sapiens, KB-V1/Vbl) was 500 ± 50 nM. The IC50 ([6]; Homo sapiens, MCF7, 72 h) was 980 ± 80 nM, the IC50 ([7]; Homo sapiens) was 1700 ± 80 nM and the IC50 ([8]; Homo sapiens, 518A2, 72 h) was 5200 ± 450 nM. For the same compound, the IC50 ([9]; Homo sapiens, HDFa) was greater than 50000 nM, the “Caspase 3/7 activity” value [10] was “increased caspase activity levels” and the “LDH release (necrosis)” value [11] was “no enzyme could be detected”. The “Inhibition of tube formation” value [12] was “stronger such effect when compared to 6-MP”.

Work on `CC(=O)OC[C@H]1O[C@@H]([S-])[C@H](OC(C)=O)[C@@H](OC(C)=O)[C@@H]1OC(C)=O.CCP(CC)CC.[Au+]` [Auranofin, auranofin] yielded an IC50 ([1]; 72 h) of 820 ± 40 nM, an IC50 ([4]; 72 h) of 2000 ± 180 nM and an IC50 [5] of 1900 ± 70 nM. The IC50 ([6]; 72 h, read-out: IC50 MCF7) was 2200 ± 220 nM, the IC50 [7] was 2400 ± 240 nM and the “Caspase 3/7 activity” value [10] was “increased caspase activity levels”. For the same compound, the “LDH release (necrosis)” value [11] was “no enzyme could be detected” and the “Inhibition of tube formation” value [12] was “inhibitory effects”.

Compound `OC[C@H]1O[C@@H](n2cnc3c([S][Au][PH](c4ccccc4)(c4ccccc4)c4ccccc4)ncnc32)[C@H](O)[C@@H]1O` [Complex 5, (1,7-Dihydro-6H-purine-9-β-D-ribofuranosyl-6-thiolato) (triphenylphosphane) gold(I)] has an IC50 ([1]; 72 h) of 340 ± 30 nM, an IC50 [2] of 1700 ± 200 nM and an IC50 [3] of 300 ± 70 nM. For the same compound, the IC50 ([4]; 72 h) was 1200 ± 90 nM, the IC50 ([6]; 72 h, read-out: IC50 MCF7) was 2400 ± 220 nM and the IC50 [7] was 1700 ± 150 nM. The IC50 ([8]; 72 h) was 2600 ± 250 nM, the IC50 [9] was 36000 ± 1700 nM and the “Caspase 3/7 activity” value [10] was “increased caspase activity levels”. For the same compound, the “LDH release (necrosis)” value [11] was “no enzyme could be detected” and the “Inhibition of tube formation” value [12] was “inhibitory effect, comparable in strength to that of 6-TG”.

With `Nc1nc([S][Au][PH](c2ccccc2)(c2ccccc2)c2ccccc2)c2ncn([C@@H]3O[C@H](CO)[C@@H](O)[C@H]3O)c2n1` [Complex 6, (2-Amino-1,7-dihydro-6H-purine-9-β-D-ribofuranosyl-6-thiolato) (triphenylphosphane) gold(I)] the IC50 ([1]; 72 h) was 3800 ± 130 nM, the IC50 [2] was 5500 ± 200 nM and the IC50 [3] was 1400 ± 300 nM. It also gave an IC50 ([4]; 72 h) of 3100 ± 190 nM, an IC50 [5] of 910 ± 90 nM and an IC50 ([6]; 72 h, read-out: IC50 MCF7) of 5800 ± 570 nM. The IC50 [7] was 1200 ± 120 nM, the IC50 ([8]; 72 h) was ~3500 nM and 3500 nM and the IC50 [9] was 36000 ± 3000 nM. The “Caspase 3/7 activity” value [10] was “even exceeded the effects of the three controls” and the “LDH release (necrosis)” value [11] was “no enzyme could be detected”.
